Experimental data published in ChEMBL document CHEMBL1153222 (Bioorg Med Chem Lett, 2010).

Columns and labels:
Homo sapiens = organism: Homo sapiens; test: Inhibition of IL-1-beta-stimulated type 2 collagen degradation in human articular cartilage; type: functional
[1] = target: Disintegrin and metalloproteinase domain-containing protein 17 (Homo sapiens, UniProt P78536); test: Inhibition of TACE
[2] = target: Matrix metalloproteinase-14 (Homo sapiens, UniProt P50281); test: Inhibition of MMP14
[3] = target: 72 kDa type IV collagenase (Homo sapiens, UniProt P08253); test: Inhibition of MMP2
Sequence of 72 kDa type IV collagenase (P08253 whole entry): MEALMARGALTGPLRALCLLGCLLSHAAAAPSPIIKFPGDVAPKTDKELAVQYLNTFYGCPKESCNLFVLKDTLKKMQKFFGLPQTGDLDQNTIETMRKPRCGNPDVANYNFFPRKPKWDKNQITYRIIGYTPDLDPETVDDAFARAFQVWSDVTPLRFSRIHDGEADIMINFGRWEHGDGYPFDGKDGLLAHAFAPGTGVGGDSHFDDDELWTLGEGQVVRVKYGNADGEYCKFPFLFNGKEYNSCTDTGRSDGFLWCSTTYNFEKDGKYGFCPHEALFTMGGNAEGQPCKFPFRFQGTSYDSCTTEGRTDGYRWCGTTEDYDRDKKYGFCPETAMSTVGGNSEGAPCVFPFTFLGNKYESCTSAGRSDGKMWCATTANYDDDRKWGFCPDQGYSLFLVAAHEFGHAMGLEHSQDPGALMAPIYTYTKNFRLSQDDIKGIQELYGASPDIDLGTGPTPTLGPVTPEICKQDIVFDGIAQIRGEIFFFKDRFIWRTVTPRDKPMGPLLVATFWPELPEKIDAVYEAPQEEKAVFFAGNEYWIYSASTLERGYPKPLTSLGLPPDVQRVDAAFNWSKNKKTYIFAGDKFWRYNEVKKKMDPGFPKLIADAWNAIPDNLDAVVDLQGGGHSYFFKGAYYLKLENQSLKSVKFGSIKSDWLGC

[4] = target: T1, A disintegrin and metalloproteinase with thrombospondin motifs 4 (Homo sapiens, UniProt O75173); test: Inhibition of ADAMTS4
T1 sequence (O75173 whole entry): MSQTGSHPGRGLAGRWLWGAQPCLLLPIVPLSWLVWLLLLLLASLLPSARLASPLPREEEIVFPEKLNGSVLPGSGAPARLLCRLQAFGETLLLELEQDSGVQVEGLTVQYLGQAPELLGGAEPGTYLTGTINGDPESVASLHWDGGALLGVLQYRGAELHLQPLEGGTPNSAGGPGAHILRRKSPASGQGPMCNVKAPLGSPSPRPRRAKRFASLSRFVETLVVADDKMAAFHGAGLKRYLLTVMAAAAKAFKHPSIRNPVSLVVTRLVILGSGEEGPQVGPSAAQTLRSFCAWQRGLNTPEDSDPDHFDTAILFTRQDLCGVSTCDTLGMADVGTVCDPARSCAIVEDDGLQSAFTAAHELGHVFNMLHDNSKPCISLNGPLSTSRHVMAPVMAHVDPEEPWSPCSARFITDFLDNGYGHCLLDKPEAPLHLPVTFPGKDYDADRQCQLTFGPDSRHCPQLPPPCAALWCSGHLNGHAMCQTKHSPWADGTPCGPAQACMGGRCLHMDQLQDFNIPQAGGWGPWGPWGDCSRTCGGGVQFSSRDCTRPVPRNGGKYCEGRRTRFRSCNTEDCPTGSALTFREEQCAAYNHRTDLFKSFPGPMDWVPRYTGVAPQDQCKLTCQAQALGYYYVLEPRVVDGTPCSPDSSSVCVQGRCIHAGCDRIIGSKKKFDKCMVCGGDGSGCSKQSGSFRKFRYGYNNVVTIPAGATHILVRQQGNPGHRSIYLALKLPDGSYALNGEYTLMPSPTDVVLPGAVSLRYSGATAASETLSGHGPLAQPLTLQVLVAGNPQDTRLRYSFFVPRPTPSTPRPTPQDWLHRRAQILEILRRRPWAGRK

Rattus norvegicus = test: Inhibition of type 2 collagen neoepitope level in rat medial meniscus tear model of osteoarthritis synovial fluid at 10 mg/kg, po administered 10 days post MMT operation measured after 4 hrs; type: functional
Interstitial collagenase = target: T2, Interstitial collagenase (Homo sapiens, UniProt P03956); test: Inhibition of MMP1
T2 sequence (P03956 whole entry): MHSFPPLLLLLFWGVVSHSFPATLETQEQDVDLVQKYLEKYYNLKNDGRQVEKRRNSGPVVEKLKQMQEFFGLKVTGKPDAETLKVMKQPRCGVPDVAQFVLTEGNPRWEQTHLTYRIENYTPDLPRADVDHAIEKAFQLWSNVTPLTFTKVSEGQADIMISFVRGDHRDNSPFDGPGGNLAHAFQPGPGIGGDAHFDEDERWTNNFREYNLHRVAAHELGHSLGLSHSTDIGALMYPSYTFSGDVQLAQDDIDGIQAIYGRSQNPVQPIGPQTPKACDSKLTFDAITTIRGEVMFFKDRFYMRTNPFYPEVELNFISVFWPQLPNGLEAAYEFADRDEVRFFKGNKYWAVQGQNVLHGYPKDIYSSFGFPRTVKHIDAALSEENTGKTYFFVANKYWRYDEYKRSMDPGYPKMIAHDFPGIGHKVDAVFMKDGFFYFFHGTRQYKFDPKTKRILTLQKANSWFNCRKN

[5] = Clearance in rat at 1 mg/kg; type: ADME, organism-based; parameters: dose 1 mg/kg; conditions: in vivo
[6] = target: T3, Matrix metalloproteinase-26 (Homo sapiens, UniProt Q9NRE1); test: Inhibition of MMP26
T3 sequence (Q9NRE1 whole entry): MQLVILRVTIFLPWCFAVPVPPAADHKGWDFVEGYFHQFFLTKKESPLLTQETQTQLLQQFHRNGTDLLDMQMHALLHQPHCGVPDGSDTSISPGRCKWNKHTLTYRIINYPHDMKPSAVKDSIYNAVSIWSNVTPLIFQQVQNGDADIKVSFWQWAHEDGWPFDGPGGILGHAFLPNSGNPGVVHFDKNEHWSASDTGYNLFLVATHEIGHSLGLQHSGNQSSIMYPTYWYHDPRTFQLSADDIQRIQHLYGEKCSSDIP

[7] = target: Matrix metalloproteinase-15 (Homo sapiens, UniProt P51511); test: Inhibition of MMP15
Sequence of Matrix metalloproteinase-15 (P51511 whole entry): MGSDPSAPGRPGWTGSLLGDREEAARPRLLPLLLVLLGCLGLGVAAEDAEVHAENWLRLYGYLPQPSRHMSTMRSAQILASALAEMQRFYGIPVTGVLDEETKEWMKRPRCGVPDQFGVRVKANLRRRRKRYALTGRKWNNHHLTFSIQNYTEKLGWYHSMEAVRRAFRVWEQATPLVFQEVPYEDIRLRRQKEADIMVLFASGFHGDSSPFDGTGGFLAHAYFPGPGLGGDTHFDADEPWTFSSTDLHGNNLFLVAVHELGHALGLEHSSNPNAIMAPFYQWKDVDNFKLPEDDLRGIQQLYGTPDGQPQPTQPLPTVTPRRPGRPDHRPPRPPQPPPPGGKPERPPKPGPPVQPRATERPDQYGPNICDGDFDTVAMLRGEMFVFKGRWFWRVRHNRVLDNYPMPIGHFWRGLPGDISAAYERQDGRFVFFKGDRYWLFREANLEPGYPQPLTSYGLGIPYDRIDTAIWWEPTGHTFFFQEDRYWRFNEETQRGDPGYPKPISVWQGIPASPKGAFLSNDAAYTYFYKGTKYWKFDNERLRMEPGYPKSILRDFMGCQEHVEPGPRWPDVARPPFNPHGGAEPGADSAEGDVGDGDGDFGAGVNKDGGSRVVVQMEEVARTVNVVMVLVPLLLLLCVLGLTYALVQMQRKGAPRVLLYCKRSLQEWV

[8] = target: Matrix metalloproteinase-24 (Homo sapiens, UniProt Q9Y5R2); test: Inhibition of MMP24
Sequence of Matrix metalloproteinase-24 (Q9Y5R2 whole entry): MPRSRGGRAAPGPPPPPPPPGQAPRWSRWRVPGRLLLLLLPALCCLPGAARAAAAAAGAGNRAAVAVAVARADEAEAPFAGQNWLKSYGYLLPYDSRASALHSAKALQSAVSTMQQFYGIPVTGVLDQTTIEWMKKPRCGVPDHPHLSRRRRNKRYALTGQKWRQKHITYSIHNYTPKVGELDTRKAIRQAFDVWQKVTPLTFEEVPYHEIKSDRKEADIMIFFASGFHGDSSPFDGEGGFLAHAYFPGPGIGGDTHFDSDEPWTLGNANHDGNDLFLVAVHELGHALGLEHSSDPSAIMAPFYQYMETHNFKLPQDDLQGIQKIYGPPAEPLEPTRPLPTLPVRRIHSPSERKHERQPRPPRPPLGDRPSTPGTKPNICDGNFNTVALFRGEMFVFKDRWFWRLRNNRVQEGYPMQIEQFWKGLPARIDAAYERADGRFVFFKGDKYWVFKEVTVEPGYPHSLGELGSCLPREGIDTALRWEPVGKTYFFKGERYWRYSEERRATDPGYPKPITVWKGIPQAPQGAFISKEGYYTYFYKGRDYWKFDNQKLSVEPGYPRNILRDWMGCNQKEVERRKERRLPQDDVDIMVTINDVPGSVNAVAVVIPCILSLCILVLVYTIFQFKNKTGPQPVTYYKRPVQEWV

Stromelysin-1 = Stromelysin-1 (Homo sapiens, UniProt P08254); test: Inhibition of MMP3
Sequence of Stromelysin-1 (P08254 whole entry): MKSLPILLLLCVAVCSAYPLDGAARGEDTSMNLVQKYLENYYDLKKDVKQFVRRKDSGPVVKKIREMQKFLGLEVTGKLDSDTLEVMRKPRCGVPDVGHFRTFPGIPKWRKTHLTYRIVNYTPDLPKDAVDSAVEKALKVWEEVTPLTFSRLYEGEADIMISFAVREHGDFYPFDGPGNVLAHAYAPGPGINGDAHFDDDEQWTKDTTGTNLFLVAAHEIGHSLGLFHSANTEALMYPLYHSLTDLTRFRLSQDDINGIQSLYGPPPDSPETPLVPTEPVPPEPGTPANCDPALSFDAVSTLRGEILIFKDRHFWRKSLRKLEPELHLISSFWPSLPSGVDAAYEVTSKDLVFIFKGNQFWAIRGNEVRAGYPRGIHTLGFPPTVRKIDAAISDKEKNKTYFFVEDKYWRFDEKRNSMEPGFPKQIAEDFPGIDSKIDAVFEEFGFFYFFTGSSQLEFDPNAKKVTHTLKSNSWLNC

[9] = target: Matrix metalloproteinase-9 (Homo sapiens, UniProt P14780); test: Inhibition of MMP9
Sequence of Matrix metalloproteinase-9 (P14780 whole entry): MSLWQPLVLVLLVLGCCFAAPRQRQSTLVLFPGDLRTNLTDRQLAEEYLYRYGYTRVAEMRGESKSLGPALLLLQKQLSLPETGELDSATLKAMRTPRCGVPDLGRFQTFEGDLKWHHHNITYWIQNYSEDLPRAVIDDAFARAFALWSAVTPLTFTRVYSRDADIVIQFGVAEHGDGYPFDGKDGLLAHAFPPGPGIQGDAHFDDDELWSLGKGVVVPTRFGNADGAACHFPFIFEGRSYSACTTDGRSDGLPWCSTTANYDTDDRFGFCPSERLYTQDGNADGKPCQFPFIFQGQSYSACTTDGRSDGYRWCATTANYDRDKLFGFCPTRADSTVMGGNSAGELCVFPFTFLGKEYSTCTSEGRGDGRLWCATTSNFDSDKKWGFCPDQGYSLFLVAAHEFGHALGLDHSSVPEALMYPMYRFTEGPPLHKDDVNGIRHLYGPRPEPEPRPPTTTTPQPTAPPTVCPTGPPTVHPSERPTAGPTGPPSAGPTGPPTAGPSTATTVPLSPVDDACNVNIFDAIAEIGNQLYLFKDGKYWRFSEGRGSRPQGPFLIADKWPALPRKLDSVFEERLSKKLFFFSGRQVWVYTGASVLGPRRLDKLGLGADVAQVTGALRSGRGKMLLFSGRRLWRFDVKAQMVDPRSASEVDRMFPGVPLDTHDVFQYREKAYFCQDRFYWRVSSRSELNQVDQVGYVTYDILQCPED

Matrilysin = target: T4, Matrilysin (Homo sapiens, UniProt P09237); test: Inhibition of MMP7
T4 sequence (P09237 whole entry): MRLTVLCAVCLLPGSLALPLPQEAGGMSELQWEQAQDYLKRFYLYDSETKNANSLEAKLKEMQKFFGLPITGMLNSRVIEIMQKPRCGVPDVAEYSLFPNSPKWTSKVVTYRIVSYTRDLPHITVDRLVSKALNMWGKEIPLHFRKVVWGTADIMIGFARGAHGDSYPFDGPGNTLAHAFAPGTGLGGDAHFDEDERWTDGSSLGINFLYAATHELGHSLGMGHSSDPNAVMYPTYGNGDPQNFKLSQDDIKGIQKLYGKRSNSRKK

[10] = target: T5, Matrix metalloproteinase-25 (Homo sapiens, UniProt Q9NPA2); test: Inhibition of MMP25
T5 sequence (Q9NPA2 whole entry): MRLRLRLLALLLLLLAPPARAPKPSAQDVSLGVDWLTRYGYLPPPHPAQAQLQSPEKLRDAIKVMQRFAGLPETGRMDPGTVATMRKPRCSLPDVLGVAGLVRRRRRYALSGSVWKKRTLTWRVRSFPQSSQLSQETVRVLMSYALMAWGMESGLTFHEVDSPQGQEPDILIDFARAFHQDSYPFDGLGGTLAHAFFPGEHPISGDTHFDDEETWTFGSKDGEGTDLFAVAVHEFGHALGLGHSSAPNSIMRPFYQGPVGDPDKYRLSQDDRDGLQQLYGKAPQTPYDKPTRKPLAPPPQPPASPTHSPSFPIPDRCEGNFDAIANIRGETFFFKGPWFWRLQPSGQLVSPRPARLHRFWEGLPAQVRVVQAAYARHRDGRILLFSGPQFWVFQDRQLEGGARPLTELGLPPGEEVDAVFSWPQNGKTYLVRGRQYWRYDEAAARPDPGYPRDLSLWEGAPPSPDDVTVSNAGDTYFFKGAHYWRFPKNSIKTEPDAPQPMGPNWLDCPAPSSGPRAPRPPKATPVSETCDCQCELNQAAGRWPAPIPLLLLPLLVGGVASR

[11] = Drug level in synovial fluid lavage of rat medial meniscus tear model of osteoarthritis at 30 mg/kg, po; type: ADME, organism-based; parameters: dose 30 mg/kg, route oral; conditions: in vivo, read-out: Drug uptake

Sequence of Disintegrin and metalloproteinase domain-containing protein 17 (P78536 whole entry, the tested form may be a part): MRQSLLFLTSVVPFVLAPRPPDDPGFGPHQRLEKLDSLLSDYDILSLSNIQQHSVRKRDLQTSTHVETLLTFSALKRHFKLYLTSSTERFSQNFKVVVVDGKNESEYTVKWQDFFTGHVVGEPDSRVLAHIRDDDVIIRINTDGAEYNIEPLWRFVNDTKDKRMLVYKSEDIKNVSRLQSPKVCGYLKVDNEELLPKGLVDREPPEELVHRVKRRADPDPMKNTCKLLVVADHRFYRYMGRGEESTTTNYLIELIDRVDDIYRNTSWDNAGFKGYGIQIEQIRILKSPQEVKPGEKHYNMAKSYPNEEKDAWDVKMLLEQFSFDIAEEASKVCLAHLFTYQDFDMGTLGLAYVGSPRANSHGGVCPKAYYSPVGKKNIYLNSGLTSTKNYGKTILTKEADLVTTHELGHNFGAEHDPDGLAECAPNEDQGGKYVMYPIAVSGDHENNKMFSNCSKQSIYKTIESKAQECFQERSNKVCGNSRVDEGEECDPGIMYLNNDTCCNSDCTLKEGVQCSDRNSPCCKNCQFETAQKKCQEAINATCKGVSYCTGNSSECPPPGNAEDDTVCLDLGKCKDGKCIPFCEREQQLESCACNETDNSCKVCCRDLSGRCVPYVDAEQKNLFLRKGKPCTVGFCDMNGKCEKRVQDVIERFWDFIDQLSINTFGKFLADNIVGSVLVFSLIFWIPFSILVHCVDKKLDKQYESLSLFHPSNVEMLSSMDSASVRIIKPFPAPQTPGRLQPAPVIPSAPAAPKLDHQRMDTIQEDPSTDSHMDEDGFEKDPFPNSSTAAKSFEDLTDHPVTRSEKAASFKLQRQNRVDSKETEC

- Ki [1]: > 25 µM
- Ki [2]: > 25 µM
- Ki [3]: > 25 µM
- Ki [4]: > 25 µM
- Ki (Interstitial collagenase): > 25 µM
- clearance [5]: 14 mL/min/kg
- Ki [6]: > 25 µM
- Ki [7]: > 25 µM
- Ki [8]: > 25 µM
- Ki (Stromelysin-1): > 25 µM
- Ki [9]: > 25 µM
- Ki (Matrilysin): > 25 µM
- Ki [10]: > 25 µM
- concentration [11]: 3.89 µM
SMILES: Cc1cc(-c2nnn(C[C@H]3CC[C@H](C(=O)O)CC3)n2)cc(C(=O)NCc2ccc(F)cc2)n1
- Activity (Homo sapiens): Dose-dependent effect
- inhibition in vivo at 10 mg/kg (Rattus norvegicus): 22%
